The assay has as its target Maternal embryonic leucine zipper kinase (Homo sapiens, UniProt Q14680). The assay is described as follows: Kinase Assay: MELK activity was determined in the presence or absence of compounds using fluorescein isothiocyanate-labeled (FITC-labeled) histone H3 peptide as a substrate. The extent of FITC-labeled histone H3 peptide phosphorylation was measured by immobilized metal ion affinity-based fluorescence polarization (IMAP) technology (Sportsman J R, et al., Assay Drug Dev. Technol. 2: 205-14, 2004) …. Format: single protein. On the technique in general: Polarisation of emitted light reports the rotation of a fluorescent probe.

Maternal embryonic leucine zipper kinase, sequence (Q14680 whole entry): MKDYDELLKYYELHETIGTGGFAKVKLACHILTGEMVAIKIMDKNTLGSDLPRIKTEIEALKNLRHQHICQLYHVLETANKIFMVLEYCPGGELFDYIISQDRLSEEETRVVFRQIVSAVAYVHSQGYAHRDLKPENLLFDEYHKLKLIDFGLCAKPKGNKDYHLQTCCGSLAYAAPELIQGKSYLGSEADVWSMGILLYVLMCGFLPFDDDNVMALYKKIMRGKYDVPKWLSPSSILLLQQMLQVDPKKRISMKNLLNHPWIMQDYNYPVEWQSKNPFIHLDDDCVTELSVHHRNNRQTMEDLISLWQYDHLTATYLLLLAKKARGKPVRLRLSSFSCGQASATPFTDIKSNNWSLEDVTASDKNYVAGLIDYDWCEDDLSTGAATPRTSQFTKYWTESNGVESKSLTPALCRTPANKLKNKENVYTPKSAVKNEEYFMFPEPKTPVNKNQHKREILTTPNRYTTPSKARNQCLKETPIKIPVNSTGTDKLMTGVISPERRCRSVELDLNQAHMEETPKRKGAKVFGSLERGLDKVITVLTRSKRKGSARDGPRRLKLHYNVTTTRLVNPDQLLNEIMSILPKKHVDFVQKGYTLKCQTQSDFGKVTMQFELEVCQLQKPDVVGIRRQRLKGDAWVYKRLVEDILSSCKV

The compound `CC(=O)c1cnc2ccc(-c3cc(F)c(O)c(Cl)c3)nc2c1N[C@H]1CC[C@H](NC(=O)[C@@H]2CCCN2)CC1` displayed an IC50 of 2.4 nM.
The value for `CC(=O)c1cnc2ccc(-c3cc(Cl)c(O)c(Cl)c3)nc2c1NC[C@H]1CC[C@H](N(C)C)CC1` was 0.6 nM.

A word on the IC50: it is the concentration needed to halve the response being measured. Higher therefore signals weaker potency in that assay.
